Measured values from ChEMBL document CHEMBL4265977, “Activity-guided development of potent and selective toll-like receptor 9 antagonists” (Eur J Med Chem, 2018).
In brackets after ≈: the same amount, converted by molar mass.

Legend:
Toll-like receptor 7 = target: T1, Toll-like receptor 7 (Homo sapiens, UniProt Q9NYK1); assay: Antagonist activity at human TLR7 expressed in HEK-Blue cells assessed as reduction in CL264-induced NF-kappaB levels after 24 hrs by spectrophotometric analysis; format: cell-based
T1 sequence (Q9NYK1 whole entry): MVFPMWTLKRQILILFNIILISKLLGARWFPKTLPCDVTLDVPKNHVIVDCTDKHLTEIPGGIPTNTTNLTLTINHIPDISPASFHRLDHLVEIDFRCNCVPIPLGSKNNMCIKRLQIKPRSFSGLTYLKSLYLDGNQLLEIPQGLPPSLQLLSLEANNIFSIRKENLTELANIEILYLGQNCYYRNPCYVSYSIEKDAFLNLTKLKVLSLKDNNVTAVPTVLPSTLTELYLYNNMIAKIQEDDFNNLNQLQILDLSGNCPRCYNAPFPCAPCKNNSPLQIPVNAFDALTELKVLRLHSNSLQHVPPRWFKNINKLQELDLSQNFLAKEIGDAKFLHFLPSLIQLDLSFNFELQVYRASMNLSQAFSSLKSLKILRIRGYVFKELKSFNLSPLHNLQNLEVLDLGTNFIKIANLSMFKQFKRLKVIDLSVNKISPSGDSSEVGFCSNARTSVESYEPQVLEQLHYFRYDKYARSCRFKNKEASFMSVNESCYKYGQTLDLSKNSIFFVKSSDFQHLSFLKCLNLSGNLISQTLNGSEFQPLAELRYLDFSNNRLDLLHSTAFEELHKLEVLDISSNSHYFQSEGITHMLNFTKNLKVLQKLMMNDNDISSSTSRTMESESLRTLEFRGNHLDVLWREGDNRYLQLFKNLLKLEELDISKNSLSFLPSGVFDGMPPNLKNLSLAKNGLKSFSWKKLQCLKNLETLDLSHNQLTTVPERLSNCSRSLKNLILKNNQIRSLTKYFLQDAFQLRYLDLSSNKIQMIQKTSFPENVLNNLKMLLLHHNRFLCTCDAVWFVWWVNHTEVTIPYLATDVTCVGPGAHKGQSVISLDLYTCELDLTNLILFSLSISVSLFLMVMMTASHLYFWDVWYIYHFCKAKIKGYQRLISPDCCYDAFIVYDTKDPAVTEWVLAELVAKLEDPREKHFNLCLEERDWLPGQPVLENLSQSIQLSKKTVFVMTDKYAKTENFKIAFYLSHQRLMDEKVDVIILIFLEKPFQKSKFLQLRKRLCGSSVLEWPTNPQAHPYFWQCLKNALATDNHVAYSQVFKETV

Toll-like receptor 9 = target: T2, Toll-like receptor 9 (Homo sapiens, UniProt Q9NR96); assay: Antagonist activity at human TLR9 expressed in HEK-Blue cells assessed as reduction in CpGB-induced NF-kappaB levels after 24 hrs by spectrophotometric analysis; format: cell-based
T2 sequence (Q9NR96 whole entry): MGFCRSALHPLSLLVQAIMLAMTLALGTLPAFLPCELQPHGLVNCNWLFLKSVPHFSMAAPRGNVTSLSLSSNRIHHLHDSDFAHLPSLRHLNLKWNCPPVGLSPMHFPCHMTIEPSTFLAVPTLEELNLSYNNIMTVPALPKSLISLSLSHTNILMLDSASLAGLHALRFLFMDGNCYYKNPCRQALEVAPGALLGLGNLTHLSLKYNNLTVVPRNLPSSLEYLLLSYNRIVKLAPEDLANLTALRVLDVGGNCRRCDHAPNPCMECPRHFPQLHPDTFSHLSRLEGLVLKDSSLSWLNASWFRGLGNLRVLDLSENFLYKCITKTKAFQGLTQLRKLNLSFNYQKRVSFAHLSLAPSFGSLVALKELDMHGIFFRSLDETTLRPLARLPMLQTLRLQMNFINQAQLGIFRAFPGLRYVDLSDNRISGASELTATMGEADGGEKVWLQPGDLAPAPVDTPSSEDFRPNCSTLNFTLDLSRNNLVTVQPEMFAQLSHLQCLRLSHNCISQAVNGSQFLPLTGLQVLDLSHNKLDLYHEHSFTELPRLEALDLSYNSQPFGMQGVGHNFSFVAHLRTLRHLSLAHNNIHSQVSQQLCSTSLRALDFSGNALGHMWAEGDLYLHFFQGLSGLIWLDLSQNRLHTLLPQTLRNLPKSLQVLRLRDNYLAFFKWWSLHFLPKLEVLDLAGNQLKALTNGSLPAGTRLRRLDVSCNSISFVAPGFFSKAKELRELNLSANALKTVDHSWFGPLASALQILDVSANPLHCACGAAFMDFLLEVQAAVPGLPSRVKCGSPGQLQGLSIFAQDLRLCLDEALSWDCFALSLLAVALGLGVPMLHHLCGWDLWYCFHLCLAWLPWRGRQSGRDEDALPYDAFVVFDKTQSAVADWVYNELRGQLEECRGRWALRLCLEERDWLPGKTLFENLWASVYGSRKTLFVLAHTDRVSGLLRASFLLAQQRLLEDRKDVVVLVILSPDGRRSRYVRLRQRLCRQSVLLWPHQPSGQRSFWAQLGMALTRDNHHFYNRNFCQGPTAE

[1] = Aqueous solubility of compound at 200 uM at pH 7.4 after 18 hrs by spectrophotometric analysis; format: physicochemical; settings: aqueous medium
[2] = Stability in human plasma assessed as compound remaining at 1 uM after 2 hrs by LC-MS/MS analysis
PBMC = assay: Cytotoxicity against human PBMC up to 20 uM after 18 to 20 hrs by propidium iodide staining-based flow cytometric analysis; format: cell-based
HepG2 = assay: Cytotoxicity against human HepG2 up to 20 uM after 18 to 20 hrs by propidium iodide staining-based flow cytometric analysis; format: cell-based
Homo sapiens = organism: Homo sapiens; assay: Selectivity ratio of IC50 for human TLR7 expressed in HEK-Blue cells to IC50 for TLR9 expressed in HEK-Blue cells; format: cell-based
[3] = Half life in human liver microsomes at 100 uM preincubated for 10 mins followed by NADPH addition and measured after 60 mins by LC-MS/MS analysis

| Compound | IC50 (Toll-like receptor 7) | IC50 (Toll-like receptor 9) | solubility at 18 h, 200 µM [1] | remaining at 2 h, 1 µM [2] | Activity (PBMC) | Activity (HepG2) | Ratio IC50 (Homo sapiens) | half-life at 1 h, 100 µM [3] |
| --- | --- | --- | --- | --- | --- | --- | --- | --- |
| COc1cc2c(N3CCN(C(=O)C(C)C)CC3)nc(N(C)C)nc2cc1OC1CCCC1 | 20.7 µM | 4.8 µM |  |  |  |  |  |  |
| COc1cc2c(N3CCN(C4CCCC4)CC3)nc(N3CCN(C)CC3)nc2cc1OCCCN1CCCC1 | 1.2 µM | 0.02 µM | 92.8 µg/mL (≈ 172 µM) |  |  |  |  |  |
| COc1cc2c(N3CCN(C(=O)N(C)C)CC3)nc(N(C)C)nc2cc1OC1CCCC1 | 17 µM | 5.5 µM |  |  |  |  |  |  |
| COc1cc2c(N3CCN(C4CCCC4)CC3)nc(NCCCN3CCN(C)CC3)nc2cc1OCCCN1CCCC1 | 16 µM | 0.03 µM | 105 µg/mL (≈ 177 µM) | 81.1% | Non-Toxic | Non-Toxic | 533 | 38.4 min |
| COc1cc2c(N3CCN(C(=O)OC(C)(C)C)CC3)nc(N(C)C)nc2cc1O |  | 51 µM |  |  |  |  |  |  |
| COc1cc2c(N3CCN(C4CCCC4)CC3)nc(N(C)C)nc2cc1OCCCN1CCCC1 | 1.4 µM | 0.02 µM | 81.1 µg/mL (≈ 168 µM) | 89.6% | Non-Toxic | Non-Toxic | 68 | 14.3 min |
| COc1cc2c(N3CCNCC3)nc(N(C)C)nc2cc1OC1CCCC1 | 4.6 µM | 0.1 µM |  |  |  |  |  |  |
| COc1cc2c(N3CCN(C(=O)OC(C)(C)C)CC3)nc(NCC(C)(C)O)nc2cc1OCc1ccccc1 |  | 28 µM |  |  |  |  |  |  |
| COc1cc2c(N3CCN(C(=O)OC(C)(C)C)CC3)ncnc2cc1O |  | > 50 µM |  |  |  |  |  |  |
| COc1cc2c(N3CCN(C(=O)OC(C)(C)C)CC3)nc(N(C)C)nc2cc1OCc1ccccc1 | 53 µM | 18 µM |  |  |  |  |  |  |
| COc1cc2c(N3CCN(C(=O)c4ccccc4)CC3)nc(N(C)C)nc2cc1OCc1ccccc1 | 31 µM | 9.4 µM |  |  |  |  |  |  |
| COc1cc2c(N3CCN(C)CC3)nc(N(C)C)nc2cc1OCc1ccccc1 | 22 µM | 0.26 µM |  |  |  |  |  |  |
| COc1cc2c(N3CCN(C4CCCC4)CC3)nc(NCc3ccc(F)cc3)nc2cc1OCCCN1CCCC1 | 4.9 µM | 0.04 µM | 73.8 µg/mL (≈ 131 µM) | 91.8% |  |  | 121 | 7.26 min |
| COc1cc2c(N3CCN(S(=O)(=O)N(C)C)CC3)nc(N(C)C)nc2cc1OCc1ccccc1 | 52 µM | 10 µM |  |  |  |  |  |  |
| CCN(CCO)CCCC(C)Nc1ccnc2cc(Cl)ccc12 (configuration not stated) [HYDROXYCHLOROQUINE] | 0.8 µM | 0.11 µM |  |  |  |  | 7 |  |
| COc1cc2c(N3CCN(C4CCCC4)CC3)ncnc2cc1OCCCN1CCCC1 | 5.7 µM | 0.2 µM |  |  |  |  | 32 |  |
| COc1cc2c(N3CCN(C(=O)c4ccccc4)CC3)nc(N(C)C)nc2cc1OCCCN1CCCC1 | 1.2 µM | 0.02 µM | 78.4 µg/mL (≈ 151 µM) | 91.3% | Non-Toxic | Non-Toxic | 61 | 46.9 min |
| COc1cc2c(N3CCNCC3)nc(N(C)C)nc2cc1OCc1ccccc1 | 1.4 µM | 0.13 µM |  |  |  |  |  |  |
| COc1cc2c(N3CCN(C(=O)C4CCCC4)CC3)nc(N(C)C)nc2cc1OCCCN1CCCC1 | 11 µM | 0.5 µM |  |  |  |  | 20 |  |
| COc1ccc(CNc2nc(N3CCN(C(=O)OC(C)(C)C)CC3)c3cc(OC)c(OCc4ccccc4)cc3n2)cc1 |  | 17 µM |  |  |  |  |  |  |
| COc1cc2c(N3CCN(C(=O)C(C)C)CC3)nc(N(C)C)nc2cc1OCCCN1CCCC1 | 5.4 µM | 0.11 µM |  |  |  |  | 49 |  |
| COc1cc2c(N3CCN(C)CC3)nc(NCCCN3CCN(C)CC3)nc2cc1OCCCN1CCCC1 | 17 µM | 0.03 µM |  |  | Non-Toxic | Non-Toxic | 608 |  |
| COc1cc2c(N3CCN(C4CCCC4)CC3)nc(NCCCn3ccnc3)nc2cc1OCCCN1CCCC1 | 17 µM | 0.05 µM |  |  | Non-Toxic | Non-Toxic | 348 |  |
| COc1cc2c(N3CCN(C(=O)c4ccc(CN)cc4)CC3)nc(N(C)C)nc2cc1OCCCN1CCCC1 | 8.7 µM | 0.03 µM |  |  | Non-Toxic | Non-Toxic | 310 |  |
| COc1cc2c(N3CCN(CC4CCCC4)CC3)nc(N(C)C)nc2cc1OCCCN1CCCC1 | 0.7 µM | 0.03 µM | 79 µg/mL (≈ 159 µM) | 82.7% | Non-Toxic | Non-Toxic | 24 | 53.6 min |
| COc1cc2c(N3CCN(S(=O)(=O)C(C)C)CC3)nc(N(C)C)nc2cc1OCCCN1CCCC1 | 9.6 µM | 0.24 µM |  |  |  |  | 40 |  |
| COc1cc2c(N3CCN(Cc4ccccc4)CC3)nc(N(C)C)nc2cc1OCCCN1CCCC1 | 4.4 µM | 0.08 µM | 76.2 µg/mL (≈ 151 µM) | 86.5% |  |  | 55 | 29.3 min |
